From US12617779B2, “Self degradation-type CDK9 inhibitor prodrug and liposome encapsulating same” (Sumitomo Pharma Co., Ltd., priority 2021, dated 2026)

Assays:
[1] = Evaluation of conversion rate to active form in BALB/c mouse plasma (Experimental Example 3); assay type: in vitro ADME; settings: BALB/c, mouse, 0.2 μmol/L
Protocol: (§1) For Example 1, Example 2, Example 3, Example 4, Example 5, Example 6, Comparative Example 3, Comparative Example 4, Comparative Example 6, Comparative Example 7, Comparative Example 8, Comparative Example 9, Comparative Example 10 and Comparative Example 12, the attrition rate of the test compound and the conversion rate of the test compound to Alvocidib in human plasma and BALB/c mouse plasma were calculated by the following method.
(§2) The test compound was added to human plasma or BALB/c mouse plasma at a concentration of 0.2 μmol/L, and incubated at 37° C. The peak areas of the test compound and Alvocidib in the sample were determined by LC-MS/MS after 0, 30 and 60 minutes for Example 1, Example 2, Example 3, Example 4, Example 5 and Example 6, and after 0, 60 and 120 minutes for Comparative Example 3, Comparative Example 4, Comparative Example 6, Comparative Example 7, Comparative Example 8, Comparative Example 9, Comparative Example 10 and Comparative Example 12, and the attrition rate of the test compound and the conversion rate of the test compound to Alvocidib were calculated by the following formula. Attrition rate of test compound (%):(peak area of test compound in sample/peak area of test compound in sample after 0 minute)×100 Conversion rate to Alvocidib (%):(peak area of Alvocidib in sample/peak area of Alvocidib in reaction solution containing 0.2 μmol/L Alvocidib)×100
(§3) The measurement conditions for LC-MS/MS are as follows. • HPLC: Prominence system (Shimadzu Corporation) • MS/MS: • Example 1, Example 2, Example 3, Example 4, Example 5, Example 6, Comparative Example 8 (mouse), Comparative Example 10 (mouse) and Comparative Example 12 (mouse) • QTRAP5500 (SCIEX) • Comparative Example 6, Comparative Example 7, Comparative Example 8 (human), Comparative Example 9, Comparative Example 10 (human) and Comparative Example 12 (human) • 4000 QTRAP (SCIEX) • column: • other than Example 3 and Example 4 • Cadenza CD-C18, 3 μm, 50×2 mm (Imtakt Corporation) • Example 3 and Example 4 • Kinetex C8, 2.6 μm, 50×2.1 mm (Phenomenex) • column temperature: 40° C. • mobile phase: • A: water containing 0.1% formic acid • B: acetonitrile containing 0.1% formic acid • A/B (min): • Example 1, Example 2, Example 5, Example 6, Comparative Example 8 (mouse), Comparative Example 10 (mouse) and Comparative Example 12 (mouse) • 90/10(0)→40/60(5.0)→10/90(5.1)→10/90(6.5)→90/10(6.6)→90/10(8.0) • Example 3 and Example 4 • 86/14(0)→86/14(3.5)→10/90(5.5)→10/90(6.5)→86/14(6.6)→86/14(9.5) • Comparative Example 6, Comparative Example 7, Comparative Example 8 (human), Comparative Example 9, Comparative Example 10 (human) and Comparative Example 12 (human) • 90/10(0)→10/90(2.5)→10/90(3.5)→90/10(3.6)→90/10(5.0) • flow rate: 0.4 mL/min • detection: ESI (positive mode) • injection: 1 to 5 μL

[2] = Evaluation of conversion rate to active form in human plasma (Experimental Example 3); assay type: in vitro ADME; settings: human, 0.2 μmol/L
Protocol: as §1, §2, §3

[3] = Evaluation of conversion rate to active form in buffer solution (Experimental Example 1); assay type: physicochemical
How it was run: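 Stability across pH: 25 umol/L, 37° C, 50 mM citrate/phosphate, pH 5.0–7.4. Sampling at 0, 0.5, 1, 2, 3 h; HPLC determined loss of compound and Alvocidib generated.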

In the case of `CN1CC[C@H](c2c(O)cc(O)c3c(=O)cc(-c4ccccc4Cl)oc23)[C@H](OC(=O)CN)C1` [Comparative Example 8, reference compound], the “Production rate (%) of Alvocidib” value ([1]; 0 min) is reported as 19%, the “Residual rate (%) of test compound” value ([1]; 0 min) is reported as 100% and the “Production rate (%) of Alvocidib” value ([1]; 60 min) is reported as 94%. The “Residual rate (%) of test compound” value ([1]; 60 min) was 14%, the “Production rate (%) of Alvocidib” value ([1]; 120 min) was 107% and the “Residual rate (%) of test compound” value ([1]; 120 min) was 4%. For the same compound, the “Production rate (%) of Alvocidib” value ([2]; 0 min) was 4%, the “Residual rate (%) of test compound” value ([2]; 0 min) was 100% and the “Production rate (%) of Alvocidib” value ([2]; 60 min) was 12%. For the same compound, the “Residual rate (%) of test compound” value ([2]; 60 min) was 87%, the “Production rate (%) of Alvocidib” value ([2]; 120 min) was 16% and the “Residual rate (%) of test compound” value ([2]; 120 min) was 94%. For the same compound, the “Production rate of Alvocidib” value ([3]; pH5.0, 0 hr) was 16.1%, the Residual rate ([3]; pH5.0, 0 hr) was 83.4% and the “Stability in buffer solution at pH 5” value ([3]; pH 5, 37° C., up to 2 or 3 hours) was “unstable”. For the same compound, the “Production rate of Alvocidib” value ([3]; pH5.0, 0.5 hr) was 17.7%, the Residual rate ([3]; pH5.0, 0.5 hr) was 81.9% and the “Production rate of Alvocidib” value ([3]; pH5.0, 1 hr) was 19.2%. The Residual rate ([3]; pH5.0, 1 hr) was 80.4%, the “Production rate of Alvocidib” value ([3]; pH5.0, 2 hr) was 21.6% and the Residual rate ([3]; pH5.0, 2 hr) was 78.1%. For the same compound, the “Production rate of Alvocidib” value ([3]; pH5.0, 3 hr) was 25.7%, the Residual rate ([3]; pH5.0, 3 hr) was 73.9% and the “Production rate of Alvocidib” value ([3]; pH5.5, 0 hr) was 16.1%. For the same compound, the Residual rate ([3]; pH5.5, 0 hr) was 83.4%, the “Production rate of Alvocidib” value ([3]; pH5.5, 0.5 hr) was 18.8% and the Residual rate ([3]; pH5.5, 0.5 hr) was 80.7%. The “Production rate of Alvocidib” value ([3]; pH5.5, 1 hr) was 21.4%, the Residual rate ([3]; pH5.5, 1 hr) was 78.3% and the “Production rate of Alvocidib” value ([3]; pH5.5, 2 hr) was 26.2%. The Residual rate ([3]; pH5.5, 2 hr) was 73.5%, the “Production rate of Alvocidib” value ([3]; pH5.5, 3 hr) was 32.0% and the Residual rate ([3]; pH5.5, 3 hr) was 67.6%. For the same compound, the “Production rate of Alvocidib” value ([3]; pH6.0, 0 hr) was 16.3%, the Residual rate ([3]; pH6.0, 0 hr) was 83.5% and the “Production rate of Alvocidib” value ([3]; pH6.0, 0.5 hr) was 27.2%. The Residual rate ([3]; pH6.0, 0.5 hr) was 72.6%, the “Production rate of Alvocidib” value ([3]; pH6.0, 1 hr) was 36.3% and the Residual rate ([3]; pH6.0, 1 hr) was 63.5%. The “Production rate of Alvocidib” value ([3]; pH6.0, 2 hr) was 62.9%, the Residual rate ([3]; pH6.0, 2 hr) was 36.7% and the “Production rate of Alvocidib” value ([3]; pH6.0, 3 hr) was 65.4%. The Residual rate ([3]; pH6.0, 3 hr) was 34.5%, the “Production rate of Alvocidib” value ([3]; pH6.5, 0 hr) was 16.5% and the Residual rate ([3]; pH6.5, 0 hr) was 83.3%. For the same compound, the “Production rate of Alvocidib” value ([3]; pH6.5, 0.5 hr) was 33.1%, the Residual rate ([3]; pH6.5, 0.5 hr) was 66.7% and the “Production rate of Alvocidib” value ([3]; pH6.5, 1 hr) was 45.9%. For the same compound, the Residual rate ([3]; pH6.5, 1 hr) was 53.9%, the “Production rate of Alvocidib” value ([3]; pH6.5, 2 hr) was 54.4% and the Residual rate ([3]; pH6.5, 2 hr) was 45.2%. For the same compound, the “Production rate of Alvocidib” value ([3]; pH6.5, 3 hr) was 79.4%, the Residual rate ([3]; pH6.5, 3 hr) was 20.4% and the “Production rate of Alvocidib” value ([3]; pH7.0, 0 hr) was 16.6%. The Residual rate ([3]; pH7.0, 0 hr) was 83.1%, the “Production rate of Alvocidib” value ([3]; pH7.0, 0.5 hr) was 35.4% and the Residual rate ([3]; pH7.0, 0.5 hr) was 64.4%. For the same compound, the “Production rate of Alvocidib” value ([3]; pH7.0, 1 hr) was 49.3%, the Residual rate ([3]; pH7.0, 1 hr) was 50.5% and the “Production rate of Alvocidib” value ([3]; pH7.0, 2 hr) was 67.6%. For the same compound, the Residual rate ([3]; pH7.0, 2 hr) was 32.1%, the “Production rate of Alvocidib” value ([3]; pH7.0, 3 hr) was 83.5% and the Residual rate ([3]; pH7.0, 3 hr) was 16.4%. The “Production rate of Alvocidib” value ([3]; pH7.4, 0 hr) was 16.7%, the Residual rate ([3]; pH7.4, 0 hr) was 83.1% and the “Production rate of Alvocidib” value ([3]; pH7.4, 0.5 hr) was 34.2%. For the same compound, the Residual rate ([3]; pH7.4, 0.5 hr) was 65.6%, the “Production rate of Alvocidib” value ([3]; pH7.4, 1 hr) was 47.4% and the Residual rate ([3]; pH7.4, 1 hr) was 52.4%. For the same compound, the “Production rate of Alvocidib” value ([3]; pH7.4, 2 hr) was 67.0%, the Residual rate ([3]; pH7.4, 2 hr) was 32.7% and the “Production rate of Alvocidib” value ([3]; pH7.4, 3 hr) was 81.4%. It also gave a Residual rate ([3]; pH7.4, 3 hr) of 18.5%.
